Assay results reported in EP0072352B1, “Benzazepin-2-ones, process for their preparation, pharmaceutical preparations containing these compounds and the compounds for therapeutical use” (CIBA-GEIGY AG, priority 1981, dated 1983).

Tested on: spontan hypertensiven Ratten
Test: Antihypertensive effect in spontaneously hypertensive rats, indirect measurement of systolic blood pressure (tail cuff), oral dosing
Type: in vivo
Settings: 3 mg/kg p. o., once daily for four days, average, measured 2 and 4 h after dosing on the last two days
Source text: Die in vivo blutdrucksenkende Wirkung wird entweder direkt mit einem Katheter, der in die femorale Arterie des Versuchstieres eingeführt ist, oder indirekt durch Sphygmomanometrie am Rattenschwanz, und einem Übertragungsinstrument registriert. Der Blutdruck wird vor und nach der Verabreichung des Wirkstoffes in mm Hg bestimmt.
So sind die antihypertensiven Wirkungen in spontan hypertensiven Ratten durch indirekte Messung des systolischen Blutdrucks nachweisbar. Nicht narkotisierte Ratten werden einzeln in Käfigen, welche ihre Bewegung einschränken, in eine leicht geheizte Kammer gebracht. Ein Puls-Sensor wird innerhalb einer aufblasbaren Manschette am Schwanz jeder Ratte angebracht. Die Manschette wird aufgeblasen, um die Schwanz-Arterie zu schließen. Der Druck in der Manschette wird kontinuierlich reduziert, und der systolische Druck entspricht demjenigen Druck in der Manschette, bei welchem die Pulswellen wieder auftreten. Nach der Registrierung von Kontrollwerten des Blutdrucks und der Herzfrequenz werden die Testverbindungen peroral einmal täglich an vier aufeinanderfolgenden Tagen verabreicht. Zusätzliche Blutdruckmessungen werden üblicherweise nach 2,0, 4,0 und 23,5 Stunden nach jeder täglichen Dosis vorgenommen. Die Werte werden mit denjenigen von Ratten, welche lediglich mit der Trägersubstanz behandelt worden sind, verglichen. […]

## CCOC(=O)[C@H](CCc1ccccc1)N[C@H]1CCc2ccccc2N(CC(=O)O)C1=O (racemic) [Beispiel 1, 1-Carboxymethyl-3-(1-äthoxycarbonyl-3-phenylpropylamino)-2,3,4,5-tetrahydro-1H-[1] benzazepin-2-on]
  Blutdruck gesenkt (antihypertensiver Effekt): 40 mm Hg
